Data: patent US11497749B2, “Mitoflavoscins: targeting flavin-containing enzymes eliminates cancer stem cells (CSCS) by inhibiting mitochondrial respiration” (LUNELLA BIOTECH, INC., priority 2017, dated 2022)
Read-outs that look alike come from different tables or passages of the source.

Columns and labels:
MCF7 cells [1] = conditions: 500 nM DPI, 72 hours
Method: Assays were performed according to the manufacturer's protocol.

MCF7 cells [2] = conditions: various concentrations, 1, 3 or 5 days, normalized to vehicle
Method: To confirm that the observed increase in ECAR corresponded to L-lactate production, L-lactate levels were measured directly using the ISCUS^flex Microdialysis Analyser (M Dialysis Inc., MA, USA). Culture media were collected, centrifuged and analysed with the ISCUS^flex Microdialysis Analyzer after treatment of MCF7 cells with various concentrations of DPI for 1, 3 or 5 days. Calibration of the instrument was performed by samples provided by the manufacturer. Then L-lactate levels were measured and normalized to samples taken from MCF7 cells treated with vehicle only.

MCF7 cells [3] = experiment: cells; conditions: Homo sapiens
Method: Cells were grown for 5 days and maintained in a humidified incubator at 37° C. at an atmospheric pressure in 5% (v/v) carbon dioxide/air.

MCF7 cells [4] = conditions: five days of treatment, concentration as high as 33 nM
Method: (§3) The inventors used a Sulphorhodamine (SRB) assay, which is based on the measurement of cellular protein content. After treatment for five days in 96-well plates, cells were fixed with 10% trichloroacetic acid (TCA) for 1 hour in the cold room, and were dried overnight at room temperature. Then, cells were incubated with SRB for 15 min, washed twice with 1% acetic acid, and air dried for at least 1 hour. Finally, the protein-bound dye was dissolved in a 10 mM Tris, pH 8.8 solution and read using the plate reader at 540-nm.

hTERT-BJ1 cells = conditions: five days of incubation, up to 100 nM
Method: as §3

MCF7 cells [5] = conditions: 24 hours
Method: Inventors hypothesized that possible mechanism by which DPI inhibits CSC propagation is by inducing mitochondrial reactive oxygen species (ROS) production. To test this hypothesis, inventors determined the effects of DPI on mitochondrial ROS production, over the range of 5 to 50 nM. Briefly, production of superoxide by mitochondria was measured by the MitoSOX™ Red mitochondrial superoxide indicator (ThermoFisher Sci., M36008). 3×10^5 MCF7 cells/well were plated in 6-well plates in complete media supplemented with 10% heat-inactivated FBS. The next day, cells were treated with DPI (5, 50 nM) or Rotenone (0.5 μM) for 24 hours. Vehicle alone (DMSO) for control cells were processed in parallel. At least 30,000 events were recorded by FACS using Fortessa (BD Bioscience). Three biological replicates (repeats) were analyzed in independent experiments.

C. elegans = conditions: during response to oxidative stress; cited from earlier work
MCF7 cells [6] = system: MCF7 cells
Excerpt: (§1) A number of methods may be used for functional validation, including, for example, metabolic flux analysis, mammosphere assays, viability assays, and antibiotic (anti-bacterial and/or anti-fungal) activity. The inventors determined real-time oxygen consumption rates (OCR) and extracellular acidification rates (ECAR) in MCF7 cells using the Seahorse Extracellular Flux (XF96) analyzer (Seahorse Bioscience, Mass., USA). Briefly, MCF7 cells were maintained in DMEM supplemented with 10% FBS (fetal bovine serum), 2 mM GlutaMAX, and 1% Pen-Strep. 8,000 cells per well were seeded into XF96-well cell culture plates, and incubated overnight at 37° C. in a 5% CO2 humidified atmosphere. The next day, cells were washed in pre-warmed XF assay media (for OCR measurement, XF assay media was supplemented with 10 mM glucose, 1 mM Pyruvate and adjusted at pH 7.4). Cells were then maintained in 175 μL/well of XF assay media at 37° C., in a non-CO2 incubator for 1 hour. During incubation, 25 μL of 80 mM glucose, 9 μM oligomycin, 1M 2-deoxyglucose (for ECAR measurement) and 25 μL of 10 μM oligomycin, 9 μM FCCP, 10 μM rotenone, 10 μM antimycin A (for OCR measurement) in XF assay media was loaded into the injection ports of the XFe-96 sensor cartridge. During the experiment, the instrument injected these inhibitors into the wells at a given time point, while ECAR/OCR was measured continuously. ECAR and OCR measurements were normalized by protein content (Sulphorhodamine B assay). Data sets were analyzed by XFe-96 software, using one-way ANOVA and Student's t-test calculations. All experiments were performed in triplicate.
(§2) Given DPI's high potency, inventors assessed its ability to rapidly affect cell metabolism.

MCF7 cells [7] = experiment: cells; conditions: Homo sapiens, MCF7, 120 h, read-out: IC-50, reduction of CD44+/CD24- cell population
Method: Inventors examined specific cell surface markers, namely fluorescent antibody probes directed against CD44 and CD24. The CD44+/CD24-cell population represents a CSC-enriched fraction. 1×10^5 MCF7 cells were plated in 6-well plates in complete media supplemented with 10% heat-inactivated FBS. […] Vehicle alone (DMSO) control cells were processed in parallel. Briefly, 30,000-50,000 live cells, as identified by 7-AAD dye staining, were analyzed for CD24/CD44 expression. Inventors used CD24 (IOTest CD24-PE, Beckman Coulter) and CD44 (APC mouse Anti-Human CD44, BD Pharmingen) antibodies for fluorescence activated cell sorting (FACS) analysis, using the BD LSR Fortessa (BD Bioscience). […] One-way ANOVA was used with Bonferroi's multiple comparisons test.

MCF7 cells [8] = experiment: cells
Excerpt: as §1
It should be appreciated that numerous methods are known for functional validation, and that persons of skill in the art may select one or more depending on the validation needs (e.g., other assays that measure or approximate mitochondrial function).
as §2
To assess the reversibility of DPI's effects, MCF7 cells were first subjected to DPI treatment for 24 hours. Then, DPI was removed (“wash-out”) and the cells were cultured for an additional 24 hours, to allow recovery.
The inventors also examined the effects of long-term treatment with DPI on cells.

MCF7 cells [9] = conditions: 10 nM, 1 month culture

With `c1ccc2c(c1)[I+]c1ccccc1-2` [DPI, Diphenyleneiodonium chloride] the “cell death (number of attached cells by DNA content)” value (MCF7 cells [1]) was “did not significantly induce any cell death”, the “reduction of ATP levels” value (MCF7 cells [1]) was over 80% and the L-lactate production (MCF7 cells [2]) was “nearly doubling the amount of lactate produced”. For the same compound, the IC50 (MCF7 cells [3]; MCF7, 120 h, read-out: IC-50, CSC propagation (mammosphere formation)) was 3.23 nM, the inhibition at 0.005 µM (MCF7 cells [3]; MCF7, read-out: inhibition of mammosphere formation) was over 50% and the “toxicity / cell viability in MCF7 cells” value (MCF7 cells [4]) was “little or no toxicity”. For the same compound, the “toxic effects / cell viability in normal fibroblasts (hTERT-BJ1)” value (hTERT-BJ1 cells) was “little or no toxic effects”, the “mitochondrial ROS production” value (MCF7 cells [5]; 5 nM, relative to vehicle) was “failed to induce any detectable mitochondrial ROS production” and the “mitochondrial ROS production” value (MCF7 cells [5]; 50 nM, versus positive control Rotenone) was “induced the same amount of mitochondrial ROS as 500 nM Rotenone”. The “accumulation of lipofuscin (aging-associated marker)” value (C. elegans) was “prevents the accumulation of lipofuscin”, the “effect on ECAR” value (MCF7 cells [6]; 2.5 nM, 24 hours of treatment) was “little or no effect” and the increase of glycolysis (MCF7 cells [6]; 10 nM, 24 hours of treatment) was about 2 fold. The increase of glycolysis (MCF7 cells [6]; one-hour treatment, 5 to 100 nM) was “effectively doubled”, the IC50 (MCF7 cells [7]) was 10 nM and the “effect on OCR” value (MCF7 cells [8]; 2.5 nM, 24-hour treatment) was “little or no effect”. For the same compound, the “reduction of basal respiration” value (MCF7 cells [8]; 5 nM, 24-hour treatment) was about 50%, the “decrease of basal respiration rate” value (MCF7 cells [8]; 10 nM, 24-hour treatment) was about 85% and the “reduction in ATP production (ATP-linked respiration)” value (MCF7 cells [8]; 10 nM, 24-hour treatment) was over 90%. For the same compound, the “inhibition of mitochondrial respiration after long-term treatment” value (MCF7 cells [8]; 1 month culture with 10, 25 and 50 nM) was “near complete inhibition of respiration”, the IC50 (MCF7 cells [8]; Homo sapiens, MCF7, 1 h, read-out: IC-50, inhibition of basal respiration) was 50 nM and the “morphology and density of the cells” value (MCF7 cells [9]) was “remains unchanged”.
